From ChEMBL document CHEMBL1151082, “Structure-directed discovery of an inhibitor of the binding of HIV GP120 to the CD4 receptor” (Bioorg Med Chem Lett, 1993) come the findings set out here.

For test [1], the target named is T1, Envelope glycoprotein gp160 (Human immunodeficiency virus type 1 group M subtype B (isolate HXB2)(HIV-1), UniProt P04578). Put plainly: Tested for inhibition of binding of soluble recombinant CD4-gp120 using ELISA assay; IA is Inactive. Background: ELISA stands for enzyme-linked immunosorbent assay.
The target in test [2] is T1, Envelope glycoprotein gp160. The test can be described thus: Tested for inhibition of binding of soluble recombinant CD4-gp120 using ELISA assay.
Test [3] has the same target. Put plainly: Tested for rate constant of binding to inhibit soluble recombinant CD4-gp120; value ranges form 4-20 uM.
For test [4] the target is unchanged. The test can be described thus: Tested for ability to block the CD4-gp120 interaction measured by binding of [125I]sCD4 to gp120.
For test [5] the target is unchanged. Put plainly: Tested in an HIV viral syncytium assay for inhibition of binding of recombinant CD4-gp120.

The structures appear in SMILES notation. pIC50, pKd: −log10 of the molar value.

On to `CCN(Cc1ccccc1)CC1CC(c2ccccc2)(c2ccccc2)C(=O)O1` (stereo unspecified), for which the IC50 entry in test [1] is listed as “Not Active”. Consider `O=C1OC(C[N+]23CCC(CC2)CC3)CC1(c1ccccc1)c1ccccc1.[Br-]` (stereo unspecified), for which, in test [1], the IC50 entry is “Not Active”. The term pIC50 denotes −log10 of the IC50, conventionally taken in molar units. As usually defined, the pKd is the Kd on a negative log10 scale, so that one unit is a factor of ten. In the case of `CC(C)C[C@H](NC(=O)[C@H](Cc1ccccc1)N1NC(=O)[C@H]([C@@H](N)CO)CCC(=O)N[C@@H](CO)C1=O)C(=O)N[C@H](C(=O)NCc1ccccc1)[C@@H](C)O`, the pIC50 in test [2] is < 4.00. In test [3], the pKd was 5.40.

On to `CCN(CCN(C)C)CC1CC(c2ccccc2)(c2ccccc2)C(=O)O1` (stereo unspecified), for which, in test [1], the IC50 result is “Not Active”. On to `CCN(CCCl)CC1CC(c2ccccc2)(c2ccccc2)C(=O)O1` (stereo unspecified), for which the pIC50 in test [2] was 4.46; in test [4], 4.52; in test [5], 4.00. Take `CC1=NCCN1CC1CC(c2ccccc2)(c2ccccc2)C(=O)O1` (stereo unspecified): the IC50 result in test [1] was “Not Active”. On the same count and under the same terms, for `CN(C)CCNCC1CC(c2ccccc2)(c2ccccc2)C(=O)O1` (stereo unspecified) the value was “Not Active”; for `CCCCN(CCCC)CC1CC(c2ccccc2)(c2ccccc2)C(=O)O1` (stereo unspecified), “Not Active”; for `CC1(C)CN(CC2CC(c3ccccc3)(c3ccccc3)C(=O)O2)C=N1` (stereo unspecified), “Not Active”. Same read-out and setting: for `O=C1OC(CBr)CC1(c1ccccc1)c1ccccc1` (stereo unspecified) the value was “Not Active”; for `CCN(CC1CC(c2ccccc2)(c2ccccc2)C(=O)O1)C(=O)C(=O)OC` (stereo unspecified), “Not Active”. For the compound `CCNCC1CC(c2ccccc2)(c2ccccc2)C(=O)O1` (stereo unspecified), the IC50 result in test [1] was “Not Active”.

Regarding `COC(=O)C(=O)N1CCC[C@@H]1C(=O)N[C@H](Cc1ccccc1)C(=O)OCc1ccccc1`, the negative-log IC50 (pIC50) in test [2] is 3.52.
